Key:
[1] = biological target: T1, TrkB (WT) dimerization (Rattus norvegicus, UniProt Q63604); assay: Split-luciferase PCA of TrkB dimerization in N2a cells; type: cell-based; conditions: for Group mean (Mean 2; Control:Vehicle = 100), fig 4f: n=8; for Group mean (Mean 2; Vehicle:vehicle = 100), fig 4d: n=20; for TrkB dimerization time course, group mean (time 0 = 100): TRKB.wt; for TrkB dimerization (PCA), group mean (vehicle = 100): WT; for Group mean (Mean 2; Vehicle:Vehicle = 100), fig 4e: n=48
T1 construct: expressed in transfected cells; host or cells: N2a
How it was run: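 N2a cells transiently co-transfected with split hGLuc-tagged rat TrkB pairs (WT/WT or Y433F/WT) for dimerization; Ketanserin, M100907 or TRKB.FC added 10 min before treatment. Luminescence read after injection of native coelenterazine ([…] final).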

[2] = system: pERK; assay: Western blot of ERK phosphorylation in cortical neurons; type: cell-based, rat
Protocol: In a separate set of experiments to examine the effect of 5-HT2A activation, M100907 (100 nM) was administered as a 10 min pretreatment and remained in the medium for the rest of the experiment. Next, cells were lysed and centrifuged. […] The co-immunoprecipitation was carried out as previously described[11],[23],[24] with minor modifications. Briefly, Magnetic Dynabeads Protein G (Invitrogen, 10004D) were coated with anti-TrkB antibody (R&D Systems, AF1494) at 200 ng of antibody per 1 µl of beads in rotation (2 h, 4 °C). Finally, lysates were mixed with the coated beads (100 µg of total protein per 15 µl of beads) and incubated in rotation (overnight, 4 °C).
Proteins were separated according to their molecular weight by SDS–PAGE and transferred to a polyvinylidene fluoride membrane. Membranes were incubated with the following primary antibodies (all 1:1,000 in 3% BSA in TBS-T, overnight, 4 °C): anti-TrkB (R&D Systems, AF1494), anti-β-actin (Sigma-Aldrich, A1978), anti-phospho-mTOR (Cell Signaling Technology, 5536S), anti-phospho-p44/42 MAPK (Erk1/2) (Cell Signaling Technology, 9106S), anti-mTOR (Cell Signaling Technology, 2972S) and anti-p44/42 MAPK (Erk1/2) (Cell Signaling Technology, 9102S). […] Protein bands were visualized using enhanced chemiluminescent substrate (Thermo Scientific, 32132, ECL Plus) and imaged with a charge-coupled device camera (G:BOX, Syngene).

[3] = system: mice; assay: Head-twitch response; type: in vivo, mouse; parameters: key to Mean, figure 7c (head-twitch response) / Mean Diff., figure 7d, Vehicle:Saline vs. Vehicle:LSD / Mean Diff., figure 7d, Vehicle:Saline vs. M100907:Saline / Mean Diff., figure 7d, M100907:Saline vs. M100907:LSD / Mean, figure 7d (head-twitch response) / Mean Diff., figure 7c, WT:Saline vs. WT:LSD / Head-twitch response, Mean: head twitch counts (scored every 2 min over 30 min); conditions: for Mean, figure 7c (head-twitch response): LSD group
Protocol: Immediately after the last injection, the animals were placed inside a transparent chamber and their activity video-recorded for 30 min. Similarly to previous studies, head twitches were scored as counts every 2 min by observers blinded to treatments and genotypes.

T1 sequence (Q63604 32-821): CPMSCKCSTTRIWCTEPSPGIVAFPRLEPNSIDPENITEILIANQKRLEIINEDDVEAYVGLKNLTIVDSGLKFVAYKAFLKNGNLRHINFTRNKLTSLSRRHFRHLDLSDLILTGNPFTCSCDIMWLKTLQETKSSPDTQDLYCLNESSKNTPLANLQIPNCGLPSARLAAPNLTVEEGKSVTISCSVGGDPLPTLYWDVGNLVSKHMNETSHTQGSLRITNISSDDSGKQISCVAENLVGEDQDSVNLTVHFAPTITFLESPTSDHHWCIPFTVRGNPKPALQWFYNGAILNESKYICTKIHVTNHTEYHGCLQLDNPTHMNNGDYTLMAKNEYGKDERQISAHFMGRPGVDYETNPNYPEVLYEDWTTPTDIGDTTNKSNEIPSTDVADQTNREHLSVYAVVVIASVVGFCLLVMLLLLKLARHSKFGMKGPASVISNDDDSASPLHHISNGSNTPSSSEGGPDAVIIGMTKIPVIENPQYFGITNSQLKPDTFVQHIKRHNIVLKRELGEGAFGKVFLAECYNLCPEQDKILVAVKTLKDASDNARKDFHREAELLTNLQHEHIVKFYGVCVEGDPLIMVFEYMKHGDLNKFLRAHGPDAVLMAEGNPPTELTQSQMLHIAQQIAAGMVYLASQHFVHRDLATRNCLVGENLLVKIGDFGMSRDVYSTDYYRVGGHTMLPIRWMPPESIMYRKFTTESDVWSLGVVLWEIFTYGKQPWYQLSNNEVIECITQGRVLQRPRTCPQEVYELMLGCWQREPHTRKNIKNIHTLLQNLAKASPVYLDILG
T1 sequence (Q63604 32-821): as above

`CCN(CC)C(=O)C1C=C2c3cccc4[nH]cc(c34)CC2N(C)C1` (stereo not shown) [LSD, lysergic acid diethylamide] was tested, and the “potentiation of BDNF effect on TrkB dimerization” value ([1]; BDNF 0.1 ng ml^−1) was “potentiates the effects of very low concentrations of BDNF”, the “Group mean (Mean 2; Control:Vehicle = 100), fig 4f” value ([1]; LSD 1nM with BDNF 0.1ng/ml) was 198.9 and the “Group mean (Mean 2; Vehicle:vehicle = 100), fig 4d” value (“Group mean … fig 4d” below) ([1]; LSD 1 nM with M100907) was 146.3. The “Group mean (Mean 2; Control:Vehicle = 100), fig 4f” value ([1]; LSD 1nM, Vehicle (no BDNF)) was 131.4, the “Group mean … fig 4d” value ([1]; LSD 1 nM, Vehicle (no M100907)) was 129.7 and the “Group mean … fig 4d” value ([1]; LSD 10 nM with M100907) was 148. The “Group mean … fig 4d” value ([1]; LSD 10 nM, Vehicle (no M100907)) was 146.6, the “Group mean … fig 4d” value ([1]; LSD 100 nM with M100907) was 153.7 and the “Group mean … fig 4d” value ([1]; LSD 100 nM, Vehicle (no M100907)) was 151.3. The “Group mean … fig 4d” value ([1]; LSD 1 µM with M100907) was 177.5, the “Group mean … fig 4d” value ([1]; LSD 1 µM, Vehicle (no M100907)) was 148.9 and the “TrkB dimerization time course, group mean (time 0 = 100)” value (“TrkB dimerization time course” for short) ([1]; time 15) was 195. For the same compound, the “TrkB dimerization time course” value ([1]; time 60) was 250.1, the “TrkB dimerization time course” value ([1]; time 120) was 213 and the “TrkB dimerization time course” value ([1]; time 240) was 184.6. The “TrkB dimerization time course” value ([1]; time 480) was 101, the TrkB dimerization ([1]; WT TrkB, N2a cells, 1 nM to 1 µM) was “fast and long-lasting increase in dimerization” and the “TrkB dimerization (PCA), group mean (vehicle = 100)” value (“TrkB dimerization (PCA), group mean” below) ([1]; 1nM) was 126.2. The “TrkB dimerization (PCA), group mean” value ([1]; 10nM) was 166.6, the “TrkB dimerization (PCA), group mean” value ([1]; 100nM) was 191.5 and the “TrkB dimerization (PCA), group mean” value ([1]; 1uM) was 201.7. For the same compound, the “Group mean (Mean 2; Vehicle:Vehicle = 100), fig 4e” value ([1]; treatment alone (other factor Vehicle)) was 209.8, the “Group mean (Mean 2; Vehicle:Vehicle = 100), fig 4e” value ([1]; with TrkB.FC) was 119.5 and the “phosphorylation of ERK (pERK)” value ([2]; LSD 100 nM) was “rapidly increases phosphorylation of ERK (pERK)”. For the same compound, the “pERK, group mean (5d)” value ([2]; LSD 100 nM, 5 min, vehicle 100) was 167.8, the “pERK, group mean (5d)” value ([2]; LSD 100 nM, 1 h, vehicle 100) was 200.7 and the “pERK, group mean (5d)” value ([2]; LSD 100 nM, 24 h, vehicle 100) was 100.4. For the same compound, the “pERK, group mean (5e)” value ([2]; M100907:LSD (LSD after M100907 pretreatment), vehicle 100) was 313.5, the “pERK, group mean (5e)” value ([2]; Vehicle:LSD, vehicle 100) was 268.1 and the “pERK, column mean over timepoints (5d)” value ([2]; mean of 5 min, 1 h, 24 h, vehicle 100) was 156.3. The “pERK, column mean of LSD (5e)” value ([2]; over vehicle and M100907 pretreatment, mean of vehicle 104) was 290.8, the “Mean, figure 7d (head-twitch response)” value ([3]; M100907:LSD group) was 0.4 and the “Mean, figure 7d (head-twitch response)” value ([3]; Vehicle:LSD group) was 33. The “Mean, figure 7c (head-twitch response)” value ([3]; WT mice) was 76.8, the “Mean Diff., figure 7c, WT:Saline vs. WT:LSD” value ([3]; WT mice, saline minus LSD, Bonferroni's multiple comparisons test) was -73.8 and the “Mean, figure 7c (head-twitch response)” value ([3]; Y433F+/- mice) was 67.8. The “Mean Diff., figure 7c, Y433F+/-:Saline vs. Y433F+/-:LSD” value ([3]; Y433F+/- mice, saline minus LSD, Bonferroni's multiple comparisons test) was -63.2, the head-twitch response ([3]; Y433F^+/− mice treated with LSD 0.1 mg kg^−1) was “occurs normally” and the “Head-twitch response, Mean” value ([3]; ext fig 7c, TrkB.WT mice, Time (min) 2) was 2.6. The “Head-twitch response, Mean” value ([3]; ext fig 7c, TrkB.WT mice, Time (min) 4) was 6.4, the “Head-twitch response, Mean” value ([3]; ext fig 7c, TrkB.WT mice, Time (min) 6) was 10.6 and the “Head-twitch response, Mean” value ([3]; ext fig 7c, TrkB.WT mice, Time (min) 8) was 7.8. The “Head-twitch response, Mean” value ([3]; ext fig 7c, TrkB.WT mice, Time (min) 10) was 6.6, the “Head-twitch response, Mean” value ([3]; ext fig 7c, TrkB.WT mice, Time (min) 12) was 7.6 and the “Head-twitch response, Mean” value ([3]; ext fig 7c, TrkB.WT mice, Time (min) 14) was 5.4. For the same compound, the “Head-twitch response, Mean” value ([3]; ext fig 7c, TrkB.WT mice, Time (min) 16) was 4.8, the “Head-twitch response, Mean” value ([3]; ext fig 7c, TrkB.WT mice, Time (min) 18) was 3.6 and the “Head-twitch response, Mean” value ([3]; ext fig 7c, TrkB.WT mice, Time (min) 20) was 4. The “Head-twitch response, Mean” value ([3]; ext fig 7c, TrkB.WT mice, Time (min) 22) was 4.6, the “Head-twitch response, Mean” value ([3]; ext fig 7c, TrkB.WT mice, Time (min) 24) was 4.8 and the “Head-twitch response, Mean” value ([3]; ext fig 7c, TrkB.WT mice, Time (min) 26) was 2. The “Head-twitch response, Mean” value ([3]; ext fig 7c, TrkB.WT mice, Time (min) 28) was 3.2, the “Head-twitch response, Mean” value ([3]; ext fig 7c, TrkB.WT mice, Time (min) 30) was 2.6 and the “Head-twitch response, Mean” value ([3]; ext fig 7c, TrkB.Y433F mice, Time (min) 2) was 3. The “Head-twitch response, Mean” value ([3]; ext fig 7c, TrkB.Y433F mice, Time (min) 4) was 6.2, the “Head-twitch response, Mean” value ([3]; ext fig 7c, TrkB.Y433F mice, Time (min) 6) was 9.4 and the “Head-twitch response, Mean” value ([3]; ext fig 7c, TrkB.Y433F mice, Time (min) 8) was 8.8. The “Head-twitch response, Mean” value ([3]; ext fig 7c, TrkB.Y433F mice, Time (min) 10) was 6.8, the “Head-twitch response, Mean” value ([3]; ext fig 7c, TrkB.Y433F mice, Time (min) 12) was 6.2 and the “Head-twitch response, Mean” value ([3]; ext fig 7c, TrkB.Y433F mice, Time (min) 14) was 4.2. For the same compound, the “Head-twitch response, Mean” value ([3]; ext fig 7c, TrkB.Y433F mice, Time (min) 16) was 5, the “Head-twitch response, Mean” value ([3]; ext fig 7c, TrkB.Y433F mice, Time (min) 18) was 3.2 and the “Head-twitch response, Mean” value ([3]; ext fig 7c, TrkB.Y433F mice, Time (min) 20) was 2.6. For the same compound, the “Head-twitch response, Mean” value ([3]; ext fig 7c, TrkB.Y433F mice, Time (min) 22) was 3, the “Head-twitch response, Mean” value ([3]; ext fig 7c, TrkB.Y433F mice, Time (min) 24) was 3.2 and the “Head-twitch response, Mean” value ([3]; ext fig 7c, TrkB.Y433F mice, Time (min) 26) was 2.2. The “Head-twitch response, Mean” value ([3]; ext fig 7c, TrkB.Y433F mice, Time (min) 28) was 1.8, the “Head-twitch response, Mean” value ([3]; ext fig 7c, TrkB.Y433F mice, Time (min) 30) was 2.4 and the “Head-twitch response, Mean” value ([3]; ext fig 7d, Time (min) 2) was 0.2. The “Head-twitch response, Mean” value ([3]; ext fig 7d, Time (min) 4) was 2.2, the “Head-twitch response, Mean” value ([3]; ext fig 7d, Time (min) 6) was 2.6 and the “Head-twitch response, Mean” value ([3]; ext fig 7d, Time (min) 8) was 4.2. The “Head-twitch response, Mean” value ([3]; ext fig 7d, Time (min) 10) was 3, the “Head-twitch response, Mean” value ([3]; ext fig 7d, Time (min) 12) was 3.8 and the “Head-twitch response, Mean” value ([3]; ext fig 7d, Time (min) 14) was 3.2. The “Head-twitch response, Mean” value ([3]; ext fig 7d, Time (min) 16) was 2.2, the “Head-twitch response, Mean” value ([3]; ext fig 7d, Time (min) 18) was 2.4 and the “Head-twitch response, Mean” value ([3]; ext fig 7d, Time (min) 20) was 1.8. For the same compound, the “Head-twitch response, Mean” value ([3]; ext fig 7d, Time (min) 22) was 1.2, the “Head-twitch response, Mean” value ([3]; ext fig 7d, Time (min) 24) was 2.2 and the “Head-twitch response, Mean” value ([3]; ext fig 7d, Time (min) 26) was 1.4. For the same compound, the “Head-twitch response, Mean” value ([3]; ext fig 7d, Time (min) 28) was 1.8, the “Head-twitch response, Mean” value ([3]; ext fig 7d, Time (min) 30) was 0.8 and the “Mean Diff., figure 7d, Vehicle:Saline vs. Vehicle:LSD” value ([3]; saline minus LSD, Bonferroni's multiple comparisons test) was -30.6. For the same compound, the “Mean Diff., figure 7d, M100907:Saline vs. M100907:LSD” value ([3]; with M100907, saline minus LSD, Bonferroni's multiple comparisons test) was -0.2.
